Test results from the supplement of paper PMC5412046.

Columns and labels:
SB.mhdgc-1 = assay: AC50 for growth inhibition (viability) (log10 M); higher = less potent; settings: SB.mhdgc-1 (hereditary c.1380delA CDH1 gastric cancer)
How it was run: (§1)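 A four-parameter fit of viability, normalised to DMSO, gave the log half-maximal activity concentration, and only high-quality curve classes were kept. Cells came from hereditary or sporadic gastric cancer patients, 500 per 1536 well, and were dosed for 48 h at 11 threefold dilutions from a final 46 μM. Readout was CellTiter-Glo luminescence on a ViewLux.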

SB.msgc-1 = assay: as above; settings: SB.msgc-1 (sporadic gastric cancer)
How it was run: as §1

| SMILES | AC50 for growth inhibition (log10 M) (SB.mhdgc-1) | AC50 for growth inhibition (log10 M) (SB.msgc-1) |
| --- | --- | --- |
| COc1ccc(-c2ccc3c(N4CCOC[C@@H]4C)nc(N4CCOC[C@@H]4C)nc3n2)cc1CO [AZD-8055] | -7.83 | -5.98 |
| C[S+](=O)([O-])N1CCN(Cc2cc3nc(-c4cccc5[nH]ncc45)nc(N4CCOCC4)c3s2)CC1 [GDC-0941] | -7.23 | -6.13 |
| CN(C)Cc1c(C(=O)NCCOc2ccc(C(=O)NO)cc2)oc2ccccc12 [Abexinostat] | -5.13 | -5.93 |
| S=P(N1CC1)(N1CC1)N1CC1 [ThioTEPA] | -5.48 | -5.23 |
| CCNC(=O)C[C@@H]1\N=C(C2=CC=C(Cl)C=C2)/C3=C(C=CC(=C3)OC)[N]4C(=NN=C14)C [I-BET762] | -6.08 | -5.63 |
| CC/1=C(\O)C(=O)\C=C2/C1=C/C=C3\[C@@]2(C)CC[C@@]4(C)[C@@H]5C[C@@](C)(CC[C@]5(C)CC[C@]34C)C(O)=O [Tripterin] | -5.58 | -5.78 |
| CN1CCC(CC1)COC2=CN=C(N=C2)C3=CC(=CC=C3)CN4/N=C(\C=C/C4=O)C5=CC(=CC=C5)C#N | -7.48 | -6.78 |
| O=C(Nc1cc(C(F)(F)F)cc(C(F)(F)F)c1)c1cc(Cl)ccc1O [IMD-0354] | -5.78 | -5.73 |
| COC1=CC2=C(C=C1CC3=C(F)C(=CC=C3)Cl)C(=O)\C(=C/N2[C@H](CO)C(C)C)C(O)=O [Elvitegravir] | -4.78 | -4.68 |
| COc1ccc(C(=O)CC2(O)C(=O)Nc3c(Cl)ccc(Cl)c32)cc1 (centres undefined) [YK-4-279] | -5.78 | -5.63 |
| CN(C)c1ccc(C(=O)NCCCCCCC(=O)NO)cc1 [M344] | -5.83 | -6.08 |
| FC(F)(F)c1ccc(/C=C/c2nc(COc3ccc(CCCCn4ccnn4)cc3)co2)cc1 [Mubritinib] | -6.78 | -7.83 |
| CN(C)CCN1C(=O)c2cccc3cc(N)cc(c23)C1=O [Amonafide] | -5.68 | -5.08 |
| O=C(Nc1ccc([N+](=O)[O-])cc1Cl)c1cc(Cl)ccc1O [Niclosamide] | -5.88 | -5.38 |
| O=C(Cc1ccc(-c2ccc(OCCN3CCOCC3)cc2)cn1)NCc1ccccc1 [KX-01] | -8.18 | -7.48 |
| CCCCOc1c(C(=O)c2c(F)cc(C)cc2F)cnc2[nH]ncc12 | -5.63 | -5.63 |
| C[C@]1(O)CC(C1)C2=NC(=C3[N]2C=CN=C3N)C4=CC5=C(C=C4)C=CC(=N5)C6=CC=CC=C6 (centres undefined) [Linsitinib] | -5.03 | -4.78 |
| CN(C)Cc1cccc(N/C(=C2\C(=O)Nc3cc(C(=O)N(C)C)ccc32)c2ccccc2)c1 | -5.48 | -5.23 |
| CC[C@@]1(O)C(=O)OCC/2=C1/C=C3\N(CC4=CC5=CC(=CC=C5N=C34)O)C2=O [10-hydroxycamptothecin] | -7.83 | -7.33 |
| CNC(=O)c1nn(C)c2c1C(C)(C)Cc1cnc(Nc3ccc(N4CCN(C)CC4)cc3)nc1-2 [Milciclib] | -5.93 | -5.88 |
| CCC[C@H](NC(=O)/C(C#N)=C/c1cccc(Br)n1)c1ccccc1 [Degrasyn] | -5.58 | -5.43 |
| CC(C)(C)C(=O)OCOP(=O)(COCCn1cnc2c(N)ncnc21)OCOC(=O)C(C)(C)C [Adefovir dipivoxil] | -6.93 | -5.28 |
